Test results taken from patent publication US20080051350A1, “Therapeutic Use for a Group of Sulphated Polysaccharides” (Bioiberica, S.A., priority 2004, published 2008).
Marks after values point to notes of the source that are not given here.

What was measured:
Assay type in all cases: cell-based
[1] = tested on: Human articular chondrocytes; assay: Synthesis of extracellular aggrecans determined by incorporation of 35S in primary culture of human chondrocytes in agarose gel; settings: for 35S incorporated into the aggrecans associated with the cells / 35S incorporated into the inter-territorial matrix's aggrecans / 35S incorporated into the re-synthesised aggrecans (total): 48 h
Description: Human articular chondrocytes were isolated following the methods described by W. T. Green Jr. (Clin. Orthop., 75, 248-260 (1971)) and K. E. Kuettner et al. (J. Cell. Biol., 93, 743-750 (1982)).
These chondrocytes were cultured in an agarose gel following the method described by P. D. Benya et al. (Cell, 30, 215-224, (1982)), and modified by G. Verbruggen et al. (Clin. Exp. Rheumatol., 8, 371-378 (1990)) and by M. Cornelissen et al. (J. Tiss. Cult. Meth., 15, 139-146 (1993)).
The synthesis of aggrecans was determined by the incorporation of ^35S, using labelled sodium sulphate Na2^35SO4 as radioactive precursor. After two weeks of culture, 10 μCi/mL of radio-labelled precursor were introduced in the culture medium for 48 h, as was the compound to be assayed (inulin polysulphate in Chemical Example 1) at different concentrations (0.0, 0.1, 0.5, 1.0, 5.0 μg/mL).
The synthesised ^35S aggrecans once again partially accumulated in the intercellular agarose matrix or else were released in the incubation medium.
Once the incubation period ended, the agarose gel was mechanically broken down and subsequently digested by means of 3 mL of a 50 U/mL […] solution in a 0.067 M phosphate buffer, at pH 6.0, in the presence of proteinase inhibitors.
The suspension thus produced was centrifuged; the supernatant containing the inter-territorial matrix's ^35S aggrecans and the incubation medium containing the ^35S aggrecan metabolites released in the extracellular matrix were subsequently united by means of chromatography.
The residue, which contained the chondrocytes and the associated ^35S aggrecans, was treated for 48 hours with 1 mL of a 4.0 M guanidium chloride solution in a 0.05M acetate buffer at pH 5.8 containing the proteinase inhibitors.
The purpose of this operation is to extract the ^35S aggrecans associated with the cells. The solution produced was centrifuged in order to separate the cells from the supernatant, which was subsequently separated by means of chromatography. The chromatography operations for the different fractions produced were performed on Sephadex G25 gel in a phosphate buffer pH 6.8 containing 0.01 M of Na2SO4, in order to separate the ^35S aggrecans from the free Na2^35SO4.
The radioactivity of each of the macromolecular eluants produced was measured and related to the number of chondrocytes contained in the initial culture, expressed in pg of ^35SO4 incorporated into the aggrecans, per million chondrocytes per hour.

[2] = tested on: human articular chondrocytes treated with interleukin-1 (IL-1); assay: Aggrecans associated with IL-1-treated chondrocytes, measured by immunocytochemistry / flux cytometry; settings: for Mean fluorescence intensity in the chondrocytes after labelling of aggrecan, M ± SD: one week of culture
Description: The human articular chondrocytes were isolated and cultured following the previously described methods.
The accumulation of aggrecans associated with the chondrocytes was measured, after a week of culture, by means of the immunocytochemistry technique described by L. Wang et al. (Osteoarthritis Cart., 9, 248-260 (2001)). The chondrocytes were treated with interleukin-1 (IL-1) in order to simulate a situation of inflammation and catabolism. The inulin polysulphate in Chemical Example 1 was added jointly with IL-1.
Once the incubation period ended, the chondrocytes were released from the agarose gel following the described method. The chondrocytes and the associated aggrecans were studied by means of flux cytometry using monoclonal antibodies specifically directed against the aggrecans' proteic part.

[3] = tested on: rat chondrosarcoma cell line called LTC; assay: Inhibition of aggrecan degradation induced by IL-1α (Western Blot, anti-aggrecan antibody G1 / NITGE); settings: 100 μg/mL, in the presence or not of IL-1α (10 ng/mL), 4 days, FIG. 1
Description: The assays were performed on chondrocyte cultures from a rat chondrosarcoma cell line called LTC.
The LTC cells were kept in a monolayer culture in a Gibco DMEM medium (Dulbecco's Modification of Eagle's Medium) (containing 4.5 g/L of glucose) supplemented with sodium bicarbonate (3.7 g/L), glutamine (2 mM), ascorbic acid (50 mg/L), gentamicin (50 mg/L), and bovine fetal serum Hyalone (10%), at pH 7.4.
The confluent LTC cell cultures were trypsinised and 40,000 cells per 0.5 mL of culture were seeded in 48-well plates. They were maintained for 5 days, during which time they deposited 15-30 μg of glycosaminoglycans (GAG) in each well.
The medium was separated, the cell membranes were washed by adding 5×1 mL of a catabolic medium {DMEM+4.5 g/L glucose supplemented with sodium bicarbonate (3.7 g/L), glutamine (2 mM), and 10 ng/mL of IL-1α (interleukin-1α) at pH 7.4). […]
For the Western Blot, 20 μL of 50 mM tris-acetate at pH 7.3 were added to each well. […] 25 μL-fractions of the supernatant were separated by electrophoresis (gel gradient 8-12% SDS PAGE) and analysed by means of a Western Blot using anti-aggrecan antibody G1. […] The antiserum was used at a 1:5,000 dilution and the peroxidase-conjugated goat anti-(rabbit IgG) was detected by means of the Amersham ECL Kit.

[4] = Donor F45, IL-1 + IPS 0.5 μg/mL
[5] = Donor F45, IL-1 + IPS 1.0 μg/mL
[6] = Donor F45, IL-1 + IPS 2.5 μg/mL
[7] = Donor M32, IL-1 + IPS 1.0 μg/mL
[8] = Donor M32, IL-1 + IPS 2.5 μg/mL
[9] = Donor M32, IL-1 + IPS 5.0 μg/mL

For Inulin Polysulphate Sodium Salt [IPS], the “Concentration of optimum activity on aggrecan synthesis” value ([1]; 35S incorporation, concentrations 0.1-5.0 μg/mL tested) was “about 0.5 μg/mL”, the “% Total: aggrecans associated with the cells with respect to the total quantity of aggrecans” value (“% Total: aggrecans associated” below) ([1]; IPS 0.1 μg/mL) was 23.5% and the “% Total: inter-territorial matrix's aggrecans with respect to the total quantity of aggrecans” value ([1]; IPS 0.1 μg/mL) was 66.2%. The “% Total: re-synthesised aggrecans with respect to the total quantity of aggrecans” value (shortened to “% Total: re-synthesised aggrecans”) ([1]; IPS 0.1 μg/mL) was 100%, the “% change with respect to the non-treated control, aggrecans associated with the cells” value ([1]; IPS 0.1 μg/mL) was 15.1% and the “% change with respect to the non-treated control, re-synthesised aggrecans (total)” value ([1]; IPS 0.1 μg/mL) was 2.9%. For the same substance, the “% change with respect to the untreated control, inter-territorial matrix's aggrecans” value (from here on “% change … inter-territorial matrix's aggrecans”) ([1]; IPS 0.1 μg/mL) was 1.4%, the “35S incorporated into the aggrecans associated with the cells” value ([1]; IPS 0.1 μg/mL) was 2,737 pg ^35S/10^6 cells/h and the “35S incorporated into the inter-territorial matrix's aggrecans” value ([1]; IPS 0.1 μg/mL) was 7,818 pg ^35S/10^6 cells/h. The “35S incorporated into the re-synthesised aggrecans (total)” value ([1]; IPS 0.1 μg/mL) was 11,756 pg ^35S/10^6 cells/h, the “% Total: aggrecans associated” value ([1]; IPS 0.5 μg/mL) was 18.4% and the “% Total: inter-territorial matrix's aggrecans with respect to the total quantity of aggrecans” value ([1]; IPS 0.5 μg/mL) was 70.7%. For the same substance, the “% Total: re-synthesised aggrecans” value ([1]; IPS 0.5 μg/mL) was 100%, the “% change with respect to the non-treated control, aggrecans associated with the cells” value ([1]; IPS 0.5 μg/mL) was 28.8* % and the “% change with respect to the non-treated control, re-synthesised aggrecans (total)” value ([1]; IPS 0.5 μg/mL) was 51.5* %. The “% change … inter-territorial matrix's aggrecans” value ([1]; IPS 0.5 μg/mL) was 60.6%, the “35S incorporated into the aggrecans associated with the cells” value ([1]; IPS 0.5 μg/mL) was 3,064* pg ^35S/10^6 cells/h and the “35S incorporated into the inter-territorial matrix's aggrecans” value ([1]; IPS 0.5 μg/mL) was 12,383 pg ^35S/10^6 cells/h. The “35S incorporated into the re-synthesised aggrecans (total)” value ([1]; IPS 0.5 μg/mL) was 17,312* pg ^35S/10^6 cells/h, the “% Total: aggrecans associated” value ([1]; IPS 1.0 μg/mL) was 17.9% and the “% Total: inter-territorial matrix's aggrecans with respect to the total quantity of aggrecans” value ([1]; IPS 1.0 μg/mL) was 70.7%. For the same substance, the “% Total: re-synthesised aggrecans” value ([1]; IPS 1.0 μg/mL) was 100%, the “% change with respect to the non-treated control, aggrecans associated with the cells” value ([1]; IPS 1.0 μg/mL) was 11.9% and the “% change with respect to the non-treated control, re-synthesised aggrecans (total)” value ([1]; IPS 1.0 μg/mL) was 33.7* %. The “% change … inter-territorial matrix's aggrecans” value ([1]; IPS 1.0 μg/mL) was 41.2* %, the “35S incorporated into the aggrecans associated with the cells” value ([1]; IPS 1.0 μg/mL) was 2,662 pg ^35S/10^6 cells/h and the “35S incorporated into the inter-territorial matrix's aggrecans” value ([1]; IPS 1.0 μg/mL) was 10,887* pg ^35S/10^6 cells/h. The “35S incorporated into the re-synthesised aggrecans (total)” value ([1]; IPS 1.0 μg/mL) was 15,281* pg ^35S/10^6 cells/h, the “% Total: aggrecans associated” value ([1]; IPS 5.0 μg/mL) was 17.4% and the “% Total: inter-territorial matrix's aggrecans with respect to the total quantity of aggrecans” value ([1]; IPS 5.0 μg/mL) was 67.9%. For the same substance, the “% Total: re-synthesised aggrecans” value ([1]; IPS 5.0 μg/mL) was 100%, the “% change with respect to the non-treated control, aggrecans associated with the cells” value ([1]; IPS 5.0 μg/mL) was 14.2% and the “% change with respect to the non-treated control, re-synthesised aggrecans (total)” value ([1]; IPS 5.0 μg/mL) was 3.0%. The “% change … inter-territorial matrix's aggrecans” value ([1]; IPS 5.0 μg/mL) was 8.2%, the “35S incorporated into the aggrecans associated with the cells” value ([1]; IPS 5.0 μg/mL) was 2,041 pg ^35S/10^6 cells/h and the “35S incorporated into the inter-territorial matrix's aggrecans” value ([1]; IPS 5.0 μg/mL) was 8,340 pg ^35S/10^6 cells/h. The “35S incorporated into the re-synthesised aggrecans (total)” value ([1]; IPS 5.0 μg/mL) was 12,106 pg ^35S/10^6 cells/h, the “% Change with respect to the group treated with IL-1 (IL-1 = 100.0)” value (“% Change … (IL-1 = 100.0)” below) [2, 4] was 112.7* % and the “Mean fluorescence intensity in the chondrocytes after labelling of aggrecan, M ± SD” value (“Mean fluorescence intensity … M ± SD” below) [2, 4] was 20.4 ± 0.2. The “% Change … (IL-1 = 100.0)” value [2, 5] was 147.0* %, the “Mean fluorescence intensity … M ± SD” value [2, 5] was 26.6 ± 0.1 and the “% Change … (IL-1 = 100.0)” value [2, 6] was 215.5* %. The “Mean fluorescence intensity … M ± SD” value [2, 6] was 39.0 ± 0.2, the “% Change … (IL-1 = 100.0)” value [2, 7] was 116.2* % and the “Mean fluorescence intensity … M ± SD” value [2, 7] was 20.8 ± 1.2. The “% Change … (IL-1 = 100.0)” value [2, 8] was 120.7* %, the “Mean fluorescence intensity … M ± SD” value [2, 8] was 21.6 ± 1.1 and the “% Change … (IL-1 = 100.0)” value [2, 9] was 139.7* %. For the same substance, the “Mean fluorescence intensity … M ± SD” value [2, 9] was 25.0 ± 1.4 and the “Effect on aggrecan degradation (band of aggrecan fragments labelled with antibody NITGE G1)” value [3] was “aggrecan degradation is inhibited”.
